Measurements reported in patent US20230159510A1, “NOVEL PRMT5 INHIBITORS” (AMGEN INC., priority 2020, published 2023).
Like-named read-outs stand apart in the source and are kept apart here.

Assays:
HCT116 MTAP null cells = experiment: HCT116 proliferation assay, MTAP null cells (CellTiter-Glo, 6 days); format: cell-based; details: read-out: Protif_ HCT116-MTAP null IC50
In short: (§1)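 Readout is CellTiter-Glo luminescence after 6 days of drug exposure at 37 °C. Compounds tested as 8–9 point, 3-fold dilution series starting at 1 or 10 µM, versus DMSO only, on cells in RPMI 1640 with 10% FBS.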

HCT116 WT cells = experiment: HCT116 proliferation assay, WT cells (CellTiter-Glo, 6 days); format: cell-based; details: read-out: Prolif_HCT116-WT IC50
In short: as §1

Row | IC50 (HCT116 MTAP null cells; HCT116-MTAP null, 144 h) [µM] | IC50 (HCT116 WT cells; Homo sapiens, HCT-116, 144 h) [µM] | IC50 (HCT116 MTAP null cells) [µM] | IC50 (HCT116 WT cells) [µM] | Compound
1 | 0.279 | 9.78 | – | – | Cc1cc2cc(C(=O)N(Cc3ccccc3F)Cc3c[nH]c4cccnc34)ccc2nc1N [Example 711, 2-amino-N-[(2-fluorophenyl)methy1] -3-methyl-N-(1H-pyrrolo[3,2-b]pyridin-3-ylmethyl)quinoline-6-carboxamide]
2 | 0.437 | 17.6 | – | – | CCOc1ccc(CN(C(=O)c2cnc3nc(N)c(I)cc3c2)[C@H](C)c2ncccn2)nn1 [Example 772, (R)-7-amino-N-((6-ethoxypyridazin-3-yl)methyl)-6-iodo-N-(1-(pyrimidin-2-yl)ethyl)-1,8-naphthyridine-3-carboxamide]
3 | 0.059 | 2.33 | – | – | Cc1cc2cc(C(=O)N(Cc3ccc(C(F)(F)F)cn3)[C@H](C)c3ccc(F)cn3)ccc2nc1N (single isomer, unassigned) [Example 484]
4 | 0.184 | > 10 | – | – | COc1ccc(CN(C(=O)c2ccc3nc(N)c(Br)cc3c2)C(C)c2ncn(C)n2)nn1 (stereo in doubt) [Example 755, (R)-2-amino-3-bromo-N-((6-methoxypyridazin-3-yl)methyl)-N-(1-(1-methyl-1H-1,2,4-triazol-3-yl)ethyl)quinoline-6-carboxamide]
5 | 0.434 | > 10 | – | – | COC[C@@H](C)N(Cc1ccc(C#N)cn1)C(=O)c1ccc2nc(N)c(Br)cc2c1 [Example 733, 2-amino-3-bromo-N-((5-cyano-2-pyridinyl)methyl)-N-((2R)-1-methoxy-2-propanyl)-6-quinolinecarboxamide]
6 | 0.161 | 5.9 | – | – | CC(c1cscn1)N(Cc1ccc(C(F)(F)F)nn1)C(=O)c1cnc2nc(N)c(Br)cc2c1 (centres unmarked) [Example 766, 7-amino-6-bromo-N-(1-(thiazol-4-yl)ethyl)-N-((6-(trifluoromethyl)pyridazin-3-yl)methyl)-1,8-naphthyridine-3-carboxamide]
7 | 0.607 | > 10 | – | – | CNc1ccc(CN(C(=O)c2ccc3nc(N)c(C)cc3c2)[C@H](C)c2ncccc2F)nn1 [Example 824, 2-Amino-N-((1R)-1-(3-fluoro-2-pyridinyl)ethyl)-3-methyl-N-((6-(methylamino)-3-pyridazinyl)methyl)-6-quinolinecarboxamide]
8 | 0.013 | 0.301 | – | – | Cc1cc2cc(C(=O)N(Cc3ccc(C(F)(F)F)cn3)[C@H](C)c3cccc(F)n3)ccc2nc1N [Example 799, (R)-2-amino-N-(1-(6-fluoropyridin-2-yl)ethyl)-3-methyl-N-((5-(trifluoromethyl)pyridin-2-yl)methyl)quinoline-6-carboxamide]
9 | 0.76 | > 1 | – | – | Cc1cc2cc(C(=O)N(Cc3ccc(N4CCC(C(N)=O)CC4)cc3)Cc3ccnc4[nH]ccc34)ccc2nc1N [Example 573, N-((1H-pyrrolo[2,3-b]pyridin-4-yl)methyl)-2-amino-N-(4-(4-carbamoylpiperidin-1-yl)benzyl)-3-methylquinoline-6-carboxamide]
10 | 0.024 | 0.372 | – | – | Cc1cc2cc(C(=O)N(Cc3ccc(C(F)(F)F)cn3)[C@H](C)c3ncon3)ccc2nc1N (single isomer, unassigned) [Example 818]
11 | 0.056 | 1.65 | – | – | C[C@H](c1ncccn1)N(Cc1ccc(C(F)(F)F)cn1)C(=O)c1cnc2nc(N)c(I)cc2c1 [Example 838, (R)-7-amino-6-iodo-N-(1-(pyrimidin-2-yl)ethyl)-N-((5-(trifluoromethyl)pyridin-2-yl)methyl)-1,8-naphthyridine-3-carboxamide]
12 | 0.807 | 0.404 | – | – | Cc1cc2cc(C(=O)N(Cc3ccccc3F)C3CC(c4ccc(OC(F)(F)F)cc4)C3)ccc2nc1N (centres unmarked) [Example 587, 2-amino-N-(2-fluorobenzyl)-3-methyl-N-(3-(4-(trifluoromethoxy)phenyl)cyclobutyl)quinoline-6-carboxamide]
13 | 0.015 | 0.362 | – | – | COC[C@@H](C1CC1)N(Cc1ccc(C(F)(F)F)cn1)C(=O)c1ccc2nc(N)c(C)cc2c1 (single isomer, unassigned) [Example 809]
14 | 0.119 | 1.74 | – | – | CO[C@H]1Cc2ccccc2[C@@H]1N(Cc1ccc(C(F)(F)F)cn1)C(=O)c1ccc2nc(N)c(C)cc2c1 [Example 752, 2-amino-N-((1S,2S)-2-methoxy-2,3-dihydro-1H-inden-1-yl)-3-methyl-N-((5-(trifluoromethyl)-2-pyridinyl)methyl)-6-quinolinecarboxamide]
15 | 0.162 | 6.15 | – | – | COC[C@@H](C)N(Cc1ccc(OC)nn1)C(=O)c1ccc2nc(N)c(C)cc2c1 [Example 789, 2-amino-N-((2R)-1-methoxy-2-propanyl)-N-((6-methoxy-3-pyridazinyl)methyl)-3-methyl-6-quinolinecarboxamide]
16 | – | – | 0.084 | 2.62 | CO[C@@H]1COCC[C@H]1N(Cc1ccc(C(F)(F)F)cn1)C(=O)c1ccc2nc(N)c(C)cc2c1 (mixture of isomers) [Example 748, 2-amino-N-((3R,4S)-3-methoxytetrahydro-2H-pyran-4-yl)-3-methyl-N-((5-(trifluoromethyl)-2-pyridinyl)methyl)-6-quinolinecarboxamide and 2-amino-N-((3S,4R)-3-methoxytetrahydro-2H-pyran-4-yl)-3-methyl-N-((5-(trifluoromethyl)-2-pyridinyl)methyl)-6-quinolinecarboxamide]
17 | 0.13 | 4.11 | – | – | CC(=O)c1ccc(CN(C(=O)c2ccc3nc(N)c(C)cc3c2)[C@H](C)c2ncccn2)nc1 [Example 754, N-((5-acetyl-2-pyridinyl)methyl)-2-amino-3-methyl-N-((1R)-1-(2-pyrimidinyl)ethyl)-6-quinolinecarboxamide]
18 | 0.018 | 0.368 | – | – | Cc1cc2cc(C(=O)N(Cc3ccc(C(F)(F)F)cn3)[C@@H]3CCC[C@H]3OC(F)F)ccc2nc1N [Example 816, 2-amino-N-((1R,2R)-2-(difluoromethoxy)cyclopentyl)-3-methyl-N-((5-(trifluoromethyl)pyridin-2-yl)methyl)quinoline-6-carboxamide]
19 | 0.144 | 1.74 | – | – | CO[C@@H]1Cc2ccccc2[C@H]1N(Cc1ccc(C(F)(F)F)cn1)C(=O)c1ccc2nc(N)c(C)cc2c1 [Example 751, 2-amino-N-((1R,2R)-2-methoxy-2,3-dihydro-1H-inden-1-yl)-3-methyl-N-((5-(trifluoromethyl)-2-pyridinyl)methyl)-6-quinolinecarboxamide]
20 | 0.059 | 1.74 | – | – | C[C@H](c1cscn1)N(Cc1ccc(C(F)(F)F)nn1)C(=O)c1cnc2nc(N)c(Br)cc2c1 (single isomer, unassigned) [Example 787]
21 | 0.062 | 1.76 | – | – | Cc1cc2cc(C(=O)N(Cc3ccc(C(F)(F)F)cn3)[C@@H]3COCc4ncccc43)ccc2nc1N (single isomer, unassigned) [Example 814]
22 | 0.057 | 1.99 | – | – | C[C@H](c1ncn(C)n1)N(Cc1ccc(C(F)F)cn1)C(=O)c1ccc2nc(N)c(I)cc2c1 [Example 839, (R)-2-amino-N-((5-(difluoromethyl)pyridin-2-yl)methyl)-3-iodo-N-(1-(1-methyl-1H-1,2,4-triazol-3-yl)ethyl)quinoline-6-carboxamide]
